Reference: PMC3431822, “Enzymatic Properties and Mutational Studies of Chalcone Synthase from Physcomitrella patens” (International Journal of Molecular Sciences, 2012)

Target: T1, PpCHS (Physcomitrium patens, UniProt Q2VAZ3)
T1 construct: gene PHYPA_029015; homodimer ~120 kDa
Test: HPLC of pyrone product, UV […] nm
Type: biochemical
Conditions: hexanoyl-CoA co-substrate, 20 mM phosphate pH 7, 30 °C, 2 h; extender substrate; Trx-fusion enzyme

T1 sequence (Q2VAZ3 entry or part of it): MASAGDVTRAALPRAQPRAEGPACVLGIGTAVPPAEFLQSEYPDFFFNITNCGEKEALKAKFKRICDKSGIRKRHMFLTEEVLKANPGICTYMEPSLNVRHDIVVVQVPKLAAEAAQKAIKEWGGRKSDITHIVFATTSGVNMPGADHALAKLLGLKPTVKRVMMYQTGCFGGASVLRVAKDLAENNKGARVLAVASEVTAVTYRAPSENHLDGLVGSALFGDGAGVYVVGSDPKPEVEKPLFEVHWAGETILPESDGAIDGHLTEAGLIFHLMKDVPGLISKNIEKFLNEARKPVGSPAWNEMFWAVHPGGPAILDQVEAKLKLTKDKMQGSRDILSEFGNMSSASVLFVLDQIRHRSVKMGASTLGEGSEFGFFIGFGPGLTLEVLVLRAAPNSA

How did the “HPLC of pyrone product, UV 280 nm” value turn out when CC(C)(COP(=O)(O)OP(=O)(O)OC[C@H]1O[C@@H](n2cnc3c(N)ncnc32)[C@H](O)[C@@H]1OP(=O)(O)O)[C@@H](O)C(=O)NCCC(=O)NCCSC(=O)CC(=O)O [malonyl-CoA] was run?
The value was “HPLC Analysis of the reaction of hexanoyl-CoA and malonyl-CoA with PpCHS”.
